In BindingDB's records for doi:10.1016/j.bmcl.2007.11.068 (Johnson & Johnson Pharmaceutical Research and Development, 2008):

Key:
[1] = target: T1, Alpha-1B adrenergic receptor (Homo sapiens, UniProt P35368)
T1 sequence (P35368 whole entry): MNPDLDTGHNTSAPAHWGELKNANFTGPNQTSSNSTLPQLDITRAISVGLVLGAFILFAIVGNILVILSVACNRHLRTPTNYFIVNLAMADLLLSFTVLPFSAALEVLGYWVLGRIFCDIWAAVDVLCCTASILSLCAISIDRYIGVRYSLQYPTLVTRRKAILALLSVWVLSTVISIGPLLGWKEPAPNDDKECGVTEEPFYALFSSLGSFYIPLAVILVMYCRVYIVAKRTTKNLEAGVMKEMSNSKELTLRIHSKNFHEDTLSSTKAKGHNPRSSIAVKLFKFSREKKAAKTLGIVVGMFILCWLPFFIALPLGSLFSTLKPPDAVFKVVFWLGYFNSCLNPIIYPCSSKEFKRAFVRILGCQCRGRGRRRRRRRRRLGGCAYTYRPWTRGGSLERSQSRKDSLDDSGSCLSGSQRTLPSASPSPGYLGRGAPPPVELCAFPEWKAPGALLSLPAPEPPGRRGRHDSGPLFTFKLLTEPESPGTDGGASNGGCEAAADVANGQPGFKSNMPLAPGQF

[2] = target: T2, Alpha-1D adrenergic receptor (Homo sapiens, UniProt P25100)
T2 sequence (P25100 whole entry): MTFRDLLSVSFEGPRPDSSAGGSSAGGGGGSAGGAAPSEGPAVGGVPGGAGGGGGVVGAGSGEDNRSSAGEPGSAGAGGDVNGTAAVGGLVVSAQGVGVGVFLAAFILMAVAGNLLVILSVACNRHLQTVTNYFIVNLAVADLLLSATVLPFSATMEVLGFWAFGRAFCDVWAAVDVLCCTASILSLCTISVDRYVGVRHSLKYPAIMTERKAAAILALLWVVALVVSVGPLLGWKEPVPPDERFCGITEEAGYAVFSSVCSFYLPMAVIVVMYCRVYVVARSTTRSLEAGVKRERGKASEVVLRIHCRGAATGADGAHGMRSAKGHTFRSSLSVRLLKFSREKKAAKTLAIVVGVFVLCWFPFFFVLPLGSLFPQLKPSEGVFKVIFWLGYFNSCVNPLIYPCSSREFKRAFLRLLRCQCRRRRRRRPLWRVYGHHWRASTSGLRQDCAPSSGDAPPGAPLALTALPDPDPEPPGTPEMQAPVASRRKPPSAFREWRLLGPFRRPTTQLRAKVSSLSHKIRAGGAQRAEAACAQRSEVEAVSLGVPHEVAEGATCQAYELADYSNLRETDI

Ki [1]: 2 nM
Ki [2]: 0.2 nM
Compound: CCOc1ccccc1OCCNC(C)Cc1ccc(OC)c(S(N)(=O)=O)c1 (configuration not stated) [NSC_60147]
